Laboratory results taken from the NIST ThermoML archive (doi:10.1016/j.fluid.2011.06.001).
± gives the expanded uncertainty stated by the source. Values belong to the molecule of their own block, whether it stands above or below them.

What was measured:
[1] = Liquid, Closed cell (Static) method
[2] = excess molar enthalpy (molar enthalpy of mixing); xn = mol fraction of the nth substance listed; settings: 298.15 K, 101 kPa, Liquid, Flow calorimetry

Structure (SMILES): CCCCCl [1-chlorobutane]
vapor or sublimation pressure ([1]; 288.15 K): 8.4 ± 0.025 kPa
vapor or sublimation pressure ([1]; 298.15 K): 13.52 ± 0.034 kPa
vapor or sublimation pressure ([1]; 308.15 K): 21.04 ± 0.048 kPa

Structure (SMILES): CCCCCl [1-chlorobutane] + CC(C)OC(C)C
excess molar enthalpy ([2]; x1 = 0.0908): -0.00684 ± 0.000263 kcal/mol
excess molar enthalpy ([2]; x1 = 0.1817): -0.0131 ± 0.000382 kcal/mol
excess molar enthalpy ([2]; x1 = 0.2726): -0.0175 ± 0.000454 kcal/mol
excess molar enthalpy ([2]; x1 = 0.3636): -0.0209 ± 0.000526 kcal/mol
excess molar enthalpy ([2]; x1 = 0.4545): -0.0228 ± 0.000574 kcal/mol
excess molar enthalpy ([2]; x1 = 0.5453): -0.0228 ± 0.000574 kcal/mol
excess molar enthalpy ([2]; x1 = 0.6363): -0.0216 ± 0.00055 kcal/mol
excess molar enthalpy ([2]; x1 = 0.7273): -0.0188 ± 0.000478 kcal/mol
excess molar enthalpy ([2]; x1 = 0.818): -0.014 ± 0.000382 kcal/mol
excess molar enthalpy ([2]; x1 = 0.909): -0.00774 ± 0.000263 kcal/mol

Structure (SMILES): CCC(C)Cl (stereo not drawn) [2-chlorobutane]
vapor or sublimation pressure ([1]; 288.15 K): 13.36 ± 0.035 kPa
vapor or sublimation pressure ([1]; 298.15 K): 20.91 ± 0.049 kPa
vapor or sublimation pressure ([1]; 308.15 K): 31.55 ± 0.068 kPa

Structure (SMILES): CCC(C)Cl (stereo not drawn) [2-chlorobutane] + CC(C)OC(C)C
excess molar enthalpy ([2]; x1 = 0.0909): -0.00368 ± 0.000215 kcal/mol
excess molar enthalpy ([2]; x1 = 0.1819): -0.00717 ± 0.000263 kcal/mol
excess molar enthalpy ([2]; x1 = 0.2726): -0.0104 ± 0.000311 kcal/mol
excess molar enthalpy ([2]; x1 = 0.3636): -0.0125 ± 0.000359 kcal/mol
excess molar enthalpy ([2]; x1 = 0.4546): -0.0137 ± 0.000382 kcal/mol
excess molar enthalpy ([2]; x1 = 0.5454): -0.0144 ± 0.000406 kcal/mol
excess molar enthalpy ([2]; x1 = 0.6365): -0.0143 ± 0.000406 kcal/mol
excess molar enthalpy ([2]; x1 = 0.7273): -0.0127 ± 0.000359 kcal/mol
excess molar enthalpy ([2]; x1 = 0.8182): -0.00985 ± 0.000311 kcal/mol
excess molar enthalpy ([2]; x1 = 0.9092): -0.006 ± 0.000239 kcal/mol

Now from value to molecule:

vapor or sublimation pressure ([1]; 288.15 K): 13 ± 0.034 kPa
vapor or sublimation pressure ([1]; 298.15 K): 20.35 ± 0.048 kPa
vapor or sublimation pressure ([1]; 308.15 K): 30.45 ± 0.066 kPa
Structure (SMILES): CC(C)CCl [1-chloro-2-methylpropane]

excess molar enthalpy ([2]; x1 = 0.0907): -0.00722 ± 0.000263 kcal/mol
excess molar enthalpy ([2]; x1 = 0.1815): -0.0129 ± 0.000359 kcal/mol
excess molar enthalpy ([2]; x1 = 0.2726): -0.0175 ± 0.000454 kcal/mol
excess molar enthalpy ([2]; x1 = 0.3634): -0.0206 ± 0.000526 kcal/mol
excess molar enthalpy ([2]; x1 = 0.4544): -0.0227 ± 0.00055 kcal/mol
excess molar enthalpy ([2]; x1 = 0.5453): -0.0229 ± 0.000574 kcal/mol
excess molar enthalpy ([2]; x1 = 0.6361): -0.0219 ± 0.00055 kcal/mol
excess molar enthalpy ([2]; x1 = 0.727): -0.0189 ± 0.000478 kcal/mol
excess molar enthalpy ([2]; x1 = 0.8179): -0.0147 ± 0.000406 kcal/mol
excess molar enthalpy ([2]; x1 = 0.909): -0.00822 ± 0.000287 kcal/mol
Structure (SMILES): CC(C)CCl [1-chloro-2-methylpropane] + CC(C)OC(C)C

vapor or sublimation pressure ([1]; 288.15 K): 26.42 ± 0.062 kPa
vapor or sublimation pressure ([1]; 298.15 K): 40.13 ± 0.087 kPa
vapor or sublimation pressure ([1]; 308.15 K): 59.52 ± 0.12 kPa
Structure (SMILES): CC(C)(C)Cl [2-chloro-2-methylpropane]

excess molar enthalpy ([2]; x1 = 0.1093): 0.00108 ± 0.000191 kcal/mol
excess molar enthalpy ([2]; x1 = 0.2192): 0.00167 ± 0.000191 kcal/mol
excess molar enthalpy ([2]; x1 = 0.3295): 0.00191 ± 0.000191 kcal/mol
excess molar enthalpy ([2]; x1 = 0.4402): 0.00196 ± 0.000191 kcal/mol
excess molar enthalpy ([2]; x1 = 0.5512): 0.0017 ± 0.000191 kcal/mol
excess molar enthalpy ([2]; x1 = 0.6628): 0.00127 ± 0.000191 kcal/mol
excess molar enthalpy ([2]; x1 = 0.7747): 0.000837 ± 0.000191 kcal/mol
excess molar enthalpy ([2]; x1 = 0.8872): 0.000311 ± 0.000191 kcal/mol
Structure (SMILES): CC(C)(C)Cl [2-chloro-2-methylpropane] + CC(C)OC(C)C

vapor or sublimation pressure ([1]; 288.15 K): 12.65 ± 0.034 kPa
vapor or sublimation pressure ([1]; 298.15 K): 20 ± 0.047 kPa
vapor or sublimation pressure ([1]; 308.15 K): 30.46 ± 0.066 kPa
Structure (SMILES): CC(C)OC(C)C [diisopropyl ether]
